Where “and” joins values, the source holds several entries; their conditions need not be identical. Identical values can stand only once. Like-named read-outs stand apart in the source and are kept apart here.
What was measured:
[1] = target: P2 transporter (TbAT1) (Trypanosoma brucei brucei, UniProt Q9Y0I0); assay: cell-based; details: for P2 transporter ΔG^0: Gibbs free energy from −RT ln(Ki); for IC50: P2 transporter IC50, single experiments, [L] 0.033 or 0.1 per experiment; for Ki: P2 transporter Ki; for P2 transporter δ(ΔG^0): in comparison to adenosine
Description: Non-specific association of radiolabel with the cell pellet was determined using an identical incubation in the presence of saturating (1 mM) unlabelled adenosine.

[2] = target: Lister 427WT T. b. brucei; assay: Adenosine deaminase susceptibility (drug sensitivity with/without 2 µM deoxycoformycin); type: cell-based, Trypanosoma brucei brucei; details: for EC50: Trypanosoma brucei, Lister 427WT, mean ± SEM, n=3
[3] = tested on: T. b. brucei Squib 427; assay: Mouse model of acute HAT
Description: Drinking water and food were available ad libitum throughout the experiment. […] The reference drug suramin was formulated in phospahte-buffered saline (PBS) at 2.5 mg mL^−1 and administered s.i.d. i.p. for 5 days at 10 mg kg^−1 (n = 3). All treatments were initiated 30 min prior to the i.p. infection. […] Parasitaemia was determined by microscopic evaluation of tail vein blood samples at 4, 7, 10, 14 and 21 dpi (pre-set endpoint). As a test of cure, blood samples (250 µL) were collected from treated mice at 21 dpi and were sub-inoculated i.p. in naive Swiss mice (n = 3), followed by monitoring of parasitaemia as follow-up.

[4] = tested on: T. brucei NY-SM cells; assay: RNA quantification (total RNA, RT-qPCR of SL-RNA, 18S rRNA, TERT); type: cell-based, Trypanosoma brucei; details: for RNA Yield: RNA Content: Control 1.00; for RNA Yield: 18S rRNA / RNA Yield: SL-RNA / RNA Yield: TERT: Control about 1
Description: After 24 h, the cells were harvested and washed with PBS. […] RNA was extracted using the QIAamp RNA Blood Mini Kit (Qiagen). Total RNA yields were determined using both Nanodrop 2000 spectrometry and Qubit fluorimetric RNA content analysis. Additionally, specific transcripts in the RNA pool were quantified using RT-qPCR targeting the SL-RNA, 18S rRNA and transcripts encoding the telomerase reverse transcriptase (TERT)[28],[56]. A list of primers used is provided in the Supplementary Methods section of the Supplementary Information.

[5] = tested on: T. brucei NY-SM cells; assay: Susceptibility assay, NY-SM cells; type: cell-based, Trypanosoma brucei brucei
Description: Susceptibility assays with NY-SM[51], BS221[48] and TbAT1-KO[48] (derived from BS221) cells were performed using 10 concentrations of a 4-fold compound dilution series starting at 64 µM. Parasites were seeded at 4 × 10^3 parasites per well and exposed to drug compound for 72 h, after which resazurin (final concentration of 10 µg mL^−1) was added to the plates. Fluorescence intensities were determined after 6 h.

[6] = inhibition of [3H]adenosine uptake, mean ± SEM, n = 3
[7] = single experiments, Cheng–Prusoff from IC50
[8] = absence of deoxycoformycin, read-out: T. b. brucei EC50, -Dcf
[9] = presence of 2 µM deoxycoformycin, read-out: T. b. brucei EC50, +Dcf

Chain of P2 transporter (TbAT1) (Q9Y0I0 entry or part of it): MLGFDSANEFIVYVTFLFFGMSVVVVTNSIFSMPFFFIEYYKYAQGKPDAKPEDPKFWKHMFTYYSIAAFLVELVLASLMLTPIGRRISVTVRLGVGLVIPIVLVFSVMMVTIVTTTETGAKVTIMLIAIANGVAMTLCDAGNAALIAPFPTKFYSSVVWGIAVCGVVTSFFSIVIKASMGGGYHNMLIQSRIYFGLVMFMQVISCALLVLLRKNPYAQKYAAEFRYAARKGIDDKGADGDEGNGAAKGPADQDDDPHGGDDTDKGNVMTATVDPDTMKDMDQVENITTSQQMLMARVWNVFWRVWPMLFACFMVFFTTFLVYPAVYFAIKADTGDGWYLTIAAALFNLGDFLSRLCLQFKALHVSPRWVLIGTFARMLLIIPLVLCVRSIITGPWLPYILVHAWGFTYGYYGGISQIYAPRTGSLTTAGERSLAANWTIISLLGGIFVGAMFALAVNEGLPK

Nc1ncnc2c1c(Br)cn2[C@@H]1O[C@H](CO)C[C@H]1O [Compound 10, 3’-deoxy-7-Br-tubercidin]
P2 transporter ΔG^0 [1]: -8.58 kcal/mol | IC50 [1]: 620 nM and 790 nM and 250 nM | Ki ([1]; AVG, source data): 500 nM | Ki [1, 6]: 502 ± 140 nM | Ki [1, 7]: 520 nM and 740 nM and 240 nM | P2 transporter δ(ΔG^0) [1]: -0.024 kcal/mol | effect of adenosine deaminase inhibition (2’-deoxycoformycin) on EC50 [2]: not significantly affected | EC50 [2, 8]: 2 ± 0.1 nM | EC50 [2, 9]: 1.9 ± 0.2 nM | tolerability in mice ([3]; 6.25 mg kg^−1 orally): not well tolerated

Nc1ncnc2c1ccn2[C@@H]1O[C@H](CO)C[C@H]1O [Compound 9, 3’-deoxytubercidin]
P2 Ki, fold lower than the Km value for adenosine [1]: roughly 3 fold | energy advantage at P2 versus adenosine [1]: roughly 3 kJ mol^−1 | P2 transporter ΔG^0 [1]: -9.3 kcal/mol | IC50 [1]: 133 nM and 281 nM and 171 nM and 85 nM | Ki ([1]; AVG, source data): 147 nM | Ki [1, 6]: 149 ± 30 nM | Ki [1, 7]: 111 nM and 236 nM and 160 nM and 80 nM | P2 transporter δ(ΔG^0) [1]: -0.741 kcal/mol | RNA Yield: RNA Content ([4]; 1.4 nM): 1.35 and 1.46 | RNA Yield: 18S rRNA ([4]; 1.4 nM): 0.9222 and 0.9324 and 0.9996 and 1.001 | RNA Yield: SL-RNA ([4]; 1.4 nM): 0.789 and 0.7785 and 0.978 and 0.9385 | RNA Yield: TERT ([4]; 1.4 nM): 0.9232 and 0.9182 and 1.015 and 1.009 | RNA Yield: RNA Content ([4]; 3.5 nM): 0.81 and 1.07 | RNA Yield: 18S rRNA ([4]; 3.5 nM): 0.9119 and 1.014 and 1.009 and 1.044 | RNA Yield: SL-RNA ([4]; 3.5 nM): 0.7939 and 0.7953 and 1.021 and 1.016 | RNA Yield: TERT ([4]; 3.5 nM): 0.9429 and 0.9282 and 1.046 and 1.035 | RNA Yield: RNA Content ([4]; 7 nM): 0.50 and 0.86 | RNA Yield: 18S rRNA ([4]; 7 nM): 1.036 and 1.037 | RNA Yield: SL-RNA ([4]; 7 nM): 1.052 and 1.049 | RNA Yield: TERT ([4]; 7 nM): 1.046 and 1.042 | impact on RNA synthesis ([4]; 24 h, various concentrations): absence of a major impact on the total RNA pool and the levels of specific transcripts | IC50 ([5]; NYsm parental cells, single replicates, read-out: IC50): 7.98 nM and 7.87 nM | Inhibition (%) ([5]; NYsm, 0.000244141 µM): 0% and 3.5% and 5.32% and 2.3% | Inhibition (%) ([5]; NYsm, 0.000976563 µM): 5.56% and 15% and 14% and 7% | Inhibition (%) ([5]; NYsm, 0.00390625 µM): 52% and 44% | Inhibition (%) ([5]; NYsm, 0.015625 µM): 98% | Inhibition (%) ([5]; NYsm, 1 µM): 98% | IC50 ([5]; Trypanosoma brucei, NYsm parental cells, single replicates, read-out: IC50): 7.92 nM | inhibition at 0.00390625 µM ([5]; Trypanosoma brucei, NYsm, 0.00390625 µM): 53% | inhibition at 0.015625 µM ([5]; Trypanosoma brucei, NYsm, 0.015625 µM): 99% | inhibition at 0.0625 µM ([5]; Trypanosoma brucei, NYsm, 0.0625 µM): 99% | inhibition at 0.25 µM ([5]; Trypanosoma brucei, NYsm, 0.25 µM): 100% | inhibition at 1 µM ([5]; Trypanosoma brucei, NYsm, 1 µM): 100% | inhibition at 4 µM ([5]; Trypanosoma brucei, NYsm, 4 µM): 100% | inhibition at 16 µM ([5]; Trypanosoma brucei, NYsm, 16 µM): 100% | inhibition at 64 µM ([5]; Trypanosoma brucei, NYsm, 64 µM): 100% | IC50 ([5]; Trypanosoma brucei, single determinations, read-out: IC50, NYsm): 5.2 nM | IC50 ([5]; single determinations, read-out: IC50, NYsm): 5.9 nM and 6.6 nM and 3.6 nM and 4.6 nM and 3.7 nM and 6.4 nM | effect of adenosine deaminase inhibition (2’-deoxycoformycin) on EC50 [2]: not significantly affected | EC50 [2, 8]: 37 ± 3 nM | EC50 [2, 9]: 49 ± 9 nM | parasitaemia, individual mice ([3]; 6.25 mg/kg bid PO, 4 dpi): 0 | parasitaemia, individual mice ([3]; 6.25 mg/kg bid PO, 7 dpi): 0 | parasitaemia, individual mice ([3]; 6.25 mg/kg bid PO, 10 dpi): 0 | parasitaemia, individual mice ([3]; 6.25 mg/kg bid PO, 14 dpi): 0 | parasitaemia, individual mice ([3]; 6.25 mg/kg bid PO, 21 dpi): 0 | parasitaemia, individual mice ([3]; 12.5 mg/kg bid PO, 4 dpi): 0 | parasitaemia, individual mice ([3]; 12.5 mg/kg bid PO, 7 dpi): 0 | parasitaemia, individual mice ([3]; 12.5 mg/kg bid PO, 10 dpi): 0 | parasitaemia, individual mice ([3]; 12.5 mg/kg bid PO, 14 dpi): 0 | parasitaemia, individual mice ([3]; 12.5 mg/kg bid PO, 21 dpi): 0 | parasitaemia, individual mice ([3]; 25 mg/kg bid PO, 4 dpi): 0 | parasitaemia, individual mice ([3]; 25 mg/kg bid PO, 7 dpi): 0 | parasitaemia, individual mice ([3]; 25 mg/kg bid PO, 10 dpi): 0 | parasitaemia, individual mice ([3]; 25 mg/kg bid PO, 14 dpi): 0 | parasitaemia, individual mice ([3]; 25 mg/kg bid PO, 21 dpi): 0 | tolerability in mice ([3]; all treatment schedules, no adverse reactions, no weight loss): well tolerated | test of cure: blood of surviving animals at 21 dpi inoculated in treatment-naïve mice ([3]; follow-up of parasitaemia): absence of parasitaemia | blood parasitaemia and survival at 21 dpi ([3]; i.p. 10 mg kg^−1 s.i.d. for 5 days): negative blood parasitaemia and survival of all treated mice | blood parasitaemia and survival at 21 dpi ([3]; oral 6.25 mg kg^−1 b.i.d. for 5 days): negative blood parasitaemia and survival of all treated mice | blood parasitaemia and survival at 21 dpi ([3]; oral 12.5 mg kg^−1 b.i.d. for 5 days): negative blood parasitaemia and survival of all treated mice | blood parasitaemia and survival at 21 dpi ([3]; oral 25 mg kg^−1 b.i.d. for 5 days): negative blood parasitaemia and survival of all treated mice

Nc1ncnc2c1c(Br)cn2[C@@H]1O[C@H](CO)[C@@H](O)[C@H]1O [Compound 8, 7-bromotubercidin]
P2 transporter ΔG^0 [1]: -7.77 kcal/mol | IC50 [1]: 2520 nM and 3860 nM and 4390 nM | Ki ([1]; AVG, source data): 3020 nM | Ki [1, 7]: 2110 nM and 3240 nM and 3690 nM | P2 transporter δ(ΔG^0) [1]: 0.789 kcal/mol
